Experimental data from patent US7799346B2, “Method of treatment directed to agent retention in biological tissues” (Advanced Cardiovascular Systems, Inc., priority 1999, dated 2010).

Legend:
[1] = In-vitro agent retention in perfused excised vessel, fluorescent intensity of tissue sections; assay type: in vitro ADME, porcine
Source text: The target tissue is a live excised porcine carotid. The tissue sample is perfused with buffered saline of Kerbs-henseleit Buffer (Sigma Catalog #K3753) at physiological temperature and pressure. Thereafter, the excised vessels are received in buffered saline solution. The artery segments are sutured to tubing using plastic nipple adapters and loaded into a perfusion chamber. The segments are stretched to their original lengths. In the perfusion chamber, the vessels are allowed to equilibrate for 10 minutes at 37° C. the hydrostatic pressure head above the chamber is about 100 cm.
A microporous balloon catheter is inserted through the rotating hemostatic valve (RHV) and secured. The agent used is […]. The agent is delivered through the catheter at 3.5 atm pressure for 2 minutes in both control and test samples. The amount of agent delivered is about 3 ml. Immediately following agent introduction, a barrier of Poly(amine) Barrier is delivered through the catheter in only the test samples for about 2 minutes. The total amount of barrier introduced is about 3 ml.
The test and control vessels are flushed with the buffer solution for about 15 minutes. The proximal and distal positions of the vessels are marked and the vessels are removed from the perfusion chamber and placed into a bath containing liquid nitrogen. The vessels are mounted in paraffin and sliced in 10 micron thin sections at the proximal, mid and distal portions.
The slides are observed using a fluorescent microscope. The fluorescent intensities of the sections are recorded, where fluorescence represents the presence of agent in the tissue. The resulting intensities over the length of the tissue sections are represented in the graphs in FIG. 5A showing the proximal section and FIG. 5B showing the mid section. […] The average intensity of agent in the test sample is about 1083, whereas the control intensity is about 749. Thus, a 44% increase in agent occurs with the use of the barrier. […]

[2] = cited from earlier work; for pKa NH3: aminium group NH3+; for pKa CO2H: carboxyl group

| fluorescent intensity of agent in tissue section, Distal [1] | fluorescent intensity of agent in tissue section, Mid [1] | fluorescent intensity of agent in tissue section, Proximal [1] | Compound | pKa NH3 [2] | pKa CO2H [2] |
| --- | --- | --- | --- | --- | --- |
| 747 | 831 | 669 | cascade blue |  |  |
|  |  |  | CSCC[C@H](N)C(=O)O [Methionine] | 9.9 |  |
|  |  |  | O=C(O)[C@@H]1C[C@@H](O)CN1 [Hydroxyproline] | 9.7 | 1.9 |
|  |  |  | N[C@@H](CSSC[C@H](N)C(=O)O)C(=O)O [Cystine] | 7.9 | 1.6 |
